Source: BindingDB's records for doi:10.1016/s0960-894x(00)00312-7 (Signal Pharmaceuticals, 2000)

Target: Protein c-Fos/Transcription factor Jun (Homo sapiens, UniProt P05412+P01100)
Assay: Inhibition of AP-1 (activator protein-1) mediated transcriptional activation in Jurkat T-cells

Protein c-Fos/Transcription factor Jun, sequence (P05412 whole entry): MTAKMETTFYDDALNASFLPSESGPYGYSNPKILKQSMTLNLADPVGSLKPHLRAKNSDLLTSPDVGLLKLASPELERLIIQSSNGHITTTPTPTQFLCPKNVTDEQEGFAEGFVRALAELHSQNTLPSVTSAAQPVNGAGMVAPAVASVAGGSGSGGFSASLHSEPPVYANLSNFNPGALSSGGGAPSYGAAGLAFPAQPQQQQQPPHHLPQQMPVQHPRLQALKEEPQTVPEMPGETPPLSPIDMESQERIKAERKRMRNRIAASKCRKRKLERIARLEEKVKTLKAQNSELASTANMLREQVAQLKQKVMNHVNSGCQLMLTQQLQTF
Protein c-Fos/Transcription factor Jun, sequence (P01100 whole entry): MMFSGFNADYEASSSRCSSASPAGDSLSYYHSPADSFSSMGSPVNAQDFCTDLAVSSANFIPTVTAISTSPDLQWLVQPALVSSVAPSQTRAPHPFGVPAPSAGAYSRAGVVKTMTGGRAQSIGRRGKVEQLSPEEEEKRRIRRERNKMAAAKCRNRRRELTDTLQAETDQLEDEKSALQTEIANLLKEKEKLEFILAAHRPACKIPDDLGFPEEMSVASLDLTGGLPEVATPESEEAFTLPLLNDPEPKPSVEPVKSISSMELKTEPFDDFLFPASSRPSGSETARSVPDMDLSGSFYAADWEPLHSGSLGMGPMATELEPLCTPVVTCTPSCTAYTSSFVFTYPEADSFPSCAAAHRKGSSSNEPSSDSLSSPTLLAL

Row | Structure (SMILES) | IC50 [nM]
1 | CC1=CC(=O)N(Nc2nc(-c3cccs3)ncc2C2=NCCO2)C1=O [1-[5-(4,5-Dihydro-oxazol-2-yl)-2-thiophen-2-yl-pyrimidin-4-ylamino]-3-methyl-pyrrole-2,5-dione] | 200
2 | CCOC(=O)c1cnc(-c2cccc(Br)c2)nc1NN1C(=O)C=C(C)C1=O [2-(3-Bromo-phenyl)-4-(3-methyl-2,5-dioxo-2,5-dihydro-pyrrol-1-ylamino)-pyrimidine-5-carboxylic acid ethyl ester] | 700
3 | CCOC(=O)c1cnc(-c2ccc(F)cc2)nc1N(C)N1C(=O)C=C(C)C1=O [2-(4-Fluoro-phenyl)-4-[methyl-(3-methyl-2,5-dioxo-2,5-dihydro-pyrrol-1-yl)-amino]-pyrimidine-5-carboxylic acid ethyl ester] | 3000
4 | CCOC(=O)c1cnc(-c2ccc(OC)cc2)nc1NN1C(=O)C=C(C)C1=O [2-(4-Methoxy-phenyl)-4-(3-methyl-2,5-dioxo-2,5-dihydro-pyrrol-1-ylamino)-pyrimidine-5-carboxylic acid ethyl ester] | 900
5 | CCOC(=O)c1cnc(S(=O)(=O)c2ccccc2)nc1NN1C(=O)C=C(C)C1=O [2-Benzenesulfonyl-4-(3-methyl-2,5-dioxo-2,5-dihydro-pyrrol-1-ylamino)-pyrimidine-5-carboxylic acid ethyl ester] | 10000
6 | CCOC(=O)c1cnc(-c2cc3ccccc3s2)nc1NN1C(=O)C=C(C)C1=O [2-Benzo[b]thiophen-2-yl-4-(3-methyl-2,5-dioxo-2,5-dihydro-pyrrol-1-ylamino)-pyrimidine-5-carboxylic acid ethyl ester] | 4000
7 | CCOC(=O)c1cnc(CC2=CCCCC2)nc1NN1C(=O)C=C(C)C1=O [2-Cyclohex-1-enylmethyl-4-(3-methyl-2,5-dioxo-2,5-dihydro-pyrrol-1-ylamino)-pyrimidine-5-carboxylic acid ethyl ester] | 2000
8 | CCOC(=O)c1cnc(C2CC2)nc1NN1C(=O)C=C(C)C1=O [2-Cyclopropyl-4-(3-methyl-2,5-dioxo-2,5-dihydro-pyrrol-1-ylamino)-pyrimidine-5-carboxylic acid ethyl ester] | 1000
9 | CCOC(=O)c1cnc(CC)nc1NN1C(=O)C=C(C)C1=O [2-Ethyl-4-(3-methyl-2,5-dioxo-2,5-dihydro-pyrrol-1-ylamino)-pyrimidine-5-carboxylic acid ethyl ester] | 10000
10 | CCOC(=O)c1cnc(C)nc1NN1C(=O)C=C(C)C1=O [2-Methyl-4-(3-methyl-2,5-dioxo-2,5-dihydro-pyrrol-1-ylamino)-pyrimidine-5-carboxylic acid ethyl ester] | 16000
11 | CC1=CC(=O)N(Nc2nc(-c3cccs3)ncc2-c2nnn(C)n2)C1=O [3-methyl-1-(5-(2-methyl-2H-tetrazol-5-yl)-2-(thiophen-2-yl)pyrimidin-4-ylamino)-1H-pyrrole-2,5-dione] | 200
12 | CC1=CC(=O)N(Nc2nc(-c3cccs3)ncc2-c2cc(C)no2)C1=O [3-methyl-1-(5-(3-methylisoxazol-5-yl)-2-(thiophen-2-yl)pyrimidin-4-ylamino)-1H-pyrrole-2,5-dione] | 300
13 | CC1=CC(=O)N(Nc2nc(-c3cccs3)ncc2-c2nc(C)co2)C1=O [3-methyl-1-(5-(4-methyloxazol-2-yl)-2-(thiophen-2-yl)pyrimidin-4-ylamino)-1H-pyrrole-2,5-dione] | 200
14 | CC1=CC(=O)N(Nc2nc(-c3cccs3)ncc2-c2nnc(C)o2)C1=O [3-methyl-1-(5-(5-methyl-1,3,4-oxadiazol-2-yl)-2-(thiophen-2-yl)pyrimidin-4-ylamino)-1H-pyrrole-2,5-dione] | 300
15 | CCOC(=O)c1cnc(C(F)(F)F)nc1NN1C(=O)C=C(c2ccccc2)C1=O [4-(2,5-Dioxo-3-phenyl-2,5-dihydro-pyrrol-1-ylamino)-2-trifluoromethyl-pyrimidine-5-carboxylic acid ethyl ester] | 20000
16 | CCOC(=O)c1cnc(-c2csc(C)n2)nc1NN1C(=O)C=C(C)C1=O [4-(3-Methyl-2,5-dioxo-2,5-dihydro-pyrrol-1-ylamino)-2-(2-methyl-thiazol-4-yl)-pyrimidine-5-carboxylic acid ethyl ester] | 8000
17 | CCOC(=O)c1cnc(-c2cccc([N+](=O)[O-])c2)nc1NN1C(=O)C=C(C)C1=O [4-(3-Methyl-2,5-dioxo-2,5-dihydro-pyrrol-1-ylamino)-2-(3-nitro-phenyl)-pyrimidine-5-carboxylic acid ethyl ester] | 7000
18 | CCOC(=O)c1cnc(-c2ccc(C(F)(F)F)cc2)nc1NN1C(=O)C=C(C)C1=O [4-(3-Methyl-2,5-dioxo-2,5-dihydro-pyrrol-1-ylamino)-2-(4-trifluoromethyl-phenyl)-pyrimidine-5-carboxylic acid ethyl ester] | 400
19 | CCOC(=O)c1cnc(-c2ccc(C)s2)nc1NN1C(=O)C=C(C)C1=O [4-(3-Methyl-2,5-dioxo-2,5-dihydro-pyrrol-1-ylamino)-2-(5-methyl-thiophen-2-yl)-pyrimidine-5-carboxylic acid ethyl ester] | 200
20 | CCOC(=O)c1cnc(SC)nc1NN1C(=O)C=C(C)C1=O [4-(3-Methyl-2,5-dioxo-2,5-dihydro-pyrrol-1-ylamino)-2-methylsulfanyl-pyrimidine-5-carboxylic acid ethyl ester] | 200

Row | Structure (SMILES) | IC50 [nM]
21 | CCOC(=O)c1cnc(-c2ccccc2)nc1NN1C(=O)C=C(C)C1=O [4-(3-Methyl-2,5-dioxo-2,5-dihydro-pyrrol-1-ylamino)-2-phenyl-pyrimidine-5-carboxylic acid ethyl ester] | 100
22 | CC1=CC(=O)N(Nc2nc(-c3cccs3)ncc2C#N)C1=O [4-(3-Methyl-2,5-dioxo-2,5-dihydro-pyrrol-1-ylamino)-2-thiophen-2-yl-pyrimidine-5-carbonitrile] | 5000
23 | CCOC(=O)c1cnc(C(F)(F)F)nc1NN1C(=O)C=C(C)C1=O [4-(3-Methyl-2,5-dioxo-2,5-dihydro-pyrrol-1-ylamino)-2-trifluoromethyl-pyrimidine-5-carboxylic acid ethyl ester] | 1000
24 | CCOC(=O)c1cnc(-c2ccccc2)nc1N(C(C)=O)N1C(=O)C=C(C)C1=O [4-[Acetyl-(3-methyl-2,5-dioxo-2,5-dihydro-pyrrol-1-yl)-amino]-2-phenyl-pyrimidine-5-carboxylic acid ethyl ester] | 4000
25 | CCOC(=O)c1cnc(-c2cc(Cl)nc(Cl)c2)nc1NN1C(=O)C=C(C)C1=O [ethyl 2-(2,6-dichloropyridin-4-yl)-4-(3-methyl-2,5-dioxo-2H-pyrrol-1(5H)-ylamino)pyrimidine-5-carboxylate] | 2000
26 | CCOC(=O)c1cnc(-c2cc(Cl)cc(Cl)c2)nc1NN1C(=O)C=C(C)C1=O [ethyl 2-(3,5-dichlorophenyl)-4-(3-methyl-2,5-dioxo-2H-pyrrol-1(5H)-ylamino)pyrimidine-5-carboxylate] | 300
27 | CCOC(=O)c1cnc(-n2nc(C)cc2C)nc1NN1C(=O)C=C(C)C1=O [ethyl 2-(3,5-dimethyl-1H-pyrazol-1-yl)-4-(3-methyl-2,5-dioxo-2H-pyrrol-1(5H)-ylamino)pyrimidine-5-carboxylate] | 10000
28 | CCOC(=O)c1cnc(-c2cccc(OC)c2)nc1NN1C(=O)C=C(C)C1=O [ethyl 2-(3-methoxyphenyl)-4-(3-methyl-2,5-dioxo-2H-pyrrol-1(5H)-ylamino)pyrimidine-5-carboxylate] | 5000
29 | CCOC(=O)c1cnc(-c2ccc(Cl)cc2)nc1NN1C(=O)C=C(C)C1=O [ethyl 2-(4-chlorophenyl)-4-(3-methyl-2,5-dioxo-2H-pyrrol-1(5H)-ylamino)pyrimidine-5-carboxylate] | 300
30 | CCOC(=O)c1cnc(-c2ccc(F)cc2)nc1NN1C(=O)C=C(C)C1=O [ethyl 2-(4-fluorophenyl)-4-(3-methyl-2,5-dioxo-2H-pyrrol-1(5H)-ylamino)pyrimidine-5-carboxylate] | 700
31 | CCOC(=O)c1cnc(-c2ccc(Cl)s2)nc1NN1C(=O)C=C(C)C1=O [ethyl 2-(5-chlorothiophen-2-yl)-4-(3-methyl-2,5-dioxo-2H-pyrrol-1(5H)-ylamino)pyrimidine-5-carboxylate] | 300
32 | CCOC(=O)c1cnc(C(=O)c2ccco2)nc1NN1C(=O)C=C(C)C1=O [ethyl 2-(furan-2-carbonyl)-4-(3-methyl-2,5-dioxo-2H-pyrrol-1(5H)-ylamino)pyrimidine-5-carboxylate] | 700
33 | CCOC(=O)c1cnc(Cc2ccccc2)nc1NN1C(=O)C=C(C)C1=O [ethyl 2-benzyl-4-(3-methyl-2,5-dioxo-2H-pyrrol-1(5H)-ylamino)pyrimidine-5-carboxylate] | 7000
34 | CCOC(=O)c1cnc(CC)nc1N(C)N1C(=O)C=C(C)C1=O [ethyl 2-ethyl-4-(methyl(3-methyl-2,5-dioxo-2H-pyrrol-1(5H)-yl)amino)pyrimidine-5-carboxylate] | 10000
35 | CCOC(=O)c1cnc(C(C)(C)C)nc1NN1C(=O)C=C(C)C1=O [ethyl 2-tert-butyl-4-(3-methyl-2,5-dioxo-2H-pyrrol-1(5H)-ylamino)pyrimidine-5-carboxylate] | 1000
36 | CCOC(=O)c1cnc(C(F)(F)F)nc1NN1C(=O)C=CC1=O [ethyl 4-(2,5-dioxo-2H-pyrrol-1(5H)-ylamino)-2-(trifluoromethyl)pyrimidine-5-carboxylate] | 10000
37 | CCOC(=O)c1cnc(C(F)(F)F)nc1NN1C(=O)C(C)=C(C)C1=O [ethyl 4-(3,4-dimethyl-2,5-dioxo-2H-pyrrol-1(5H)-ylamino)-2-(trifluoromethyl)pyrimidine-5-carboxylate] | 10000
38 | CCOC(=O)c1cnc(Sc2ccccc2)nc1NN1C(=O)C=C(C)C1=O [ethyl 4-(3-methyl-2,5-dioxo-2,5-dihydro-1H-pyrrol-1-ylamino)-2-(phenylthio)pyrimidine-5-carboxylate] | 1000
39 | CCOC(=O)c1cnc(-c2ccncc2)nc1NN1C(=O)C=C(C)C1=O [ethyl 4-(3-methyl-2,5-dioxo-2H-pyrrol-1(5H)-ylamino)-2-(pyridin-4-yl)pyrimidine-5-carboxylate] | 6000
40 | CCOC(=O)c1cnc(-c2cnc3ccccc3c2)nc1NN1C(=O)C=C(C)C1=O [ethyl 4-(3-methyl-2,5-dioxo-2H-pyrrol-1(5H)-ylamino)-2-(quinolin-3-yl)pyrimidine-5-carboxylate] | 6000
